PMC6576746, “Rational discovery of dual-indication multi-target PDE/Kinase inhibitor for precision anti-cancer therapy using structural systems pharmacology” (PLoS Computational Biology, 2019)

Legend:
Assay in all cases: cells
Set-up in all cases: species or system panel of human cancer cell lines; Eurofins OncoPanel proliferation; nuclei count by high-content fluorescence imaging, 10-point dose response
U2OS = details: Homo sapiens, U2OS, 72 h, cell count, 3 days
Method in brief: (§1)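 Ten half-log concentrations from 100 μM (0.1% DMSO max) applied one day post-seeding, 3-day exposure at 37°C; untreated time-zero plate for GI50. Readout is nuclear cell count by automated fluorescence imaging, giving EC50, IC50, GI50 and 0–10 activity area.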

CCF-STTG1 = details: Homo sapiens, CCF-STTG1, 72 h, cell count, 3 days
Method in brief: as §1

Hs 888.Sk = details: 72 h, cell count, 3 days
Method in brief: as §1

HEC-1-A = details: Homo sapiens, HEC-1-A, 72 h, cell count, 3 days
Method in brief: as §1

A498 = details: Homo sapiens, A498, 72 h, cell count, 3 days
Method in brief: as §1

SCaBER = details: Homo sapiens, SCaBER, 72 h, cell count, 3 days
Method in brief: as §1

OE19 = details: Homo sapiens, OE19, 72 h, cell count, 3 days
Method in brief: as §1

G-402 = details: Homo sapiens, G-402, 72 h, cell count, 3 days
Method in brief: as §1

SW1783 = details: Homo sapiens, SW1783, 72 h, cell count, 3 days
Method in brief: as §1

A204 = details: Homo sapiens, A204, 72 h, cell count, 3 days
Method in brief: as §1

TT = details: Homo sapiens, TT, 72 h, cell count, 3 days
Method in brief: as §1

G-401 = details: Homo sapiens, G-401, 72 h, cell count, 3 days
Method in brief: as §1

SCC-9 = details: Homo sapiens, SCC-9, 72 h, cell count, 3 days
Method in brief: as §1

SW579 = details: SW579, 72 h, cell count, 3 days
Method in brief: as §1

[1] = 50% of maximum possible response

## C[C@@H]1CC(=O)NN=C1c1ccc(NN=C(C#N)C#N)cc1 [levosimendan]
U2OS; [1]
  IC50: 8.58 µM
U2OS; corrected for time zero
  GI50: 6.64 µM
U2OS; curve inflection point
  EC50: 7.6 µM
CCF-STTG1; [1]
  IC50: > 100 µM
CCF-STTG1; corrected for time zero
  GI50: > 100 µM
CCF-STTG1; curve inflection point
  EC50: > 100 µM
Hs 888.Sk; [1]
  IC50: > 100 µM
Hs 888.Sk; corrected for time zero
  GI50: 47.6 µM
Hs 888.Sk; curve inflection point
  EC50: > 100 µM
HEC-1-A; [1]
  IC50: 34.3 µM
HEC-1-A; corrected for time zero
  GI50: 28.2 µM
HEC-1-A; curve inflection point
  EC50: 34.3 µM
A498; [1]
  IC50: 81.2 µM
A498; corrected for time zero
  GI50: 60.8 µM
A498; curve inflection point
  EC50: 81.2 µM
SCaBER; [1]
  IC50: 60.4 µM
SCaBER; corrected for time zero
  GI50: 56.5 µM
SCaBER; curve inflection point
  EC50: 60.4 µM
OE19; [1]
  IC50: > 100 µM
OE19; corrected for time zero
  GI50: 96.8 µM
OE19; curve inflection point
  EC50: > 100 µM
G-402; [1]
  IC50: 10.1 µM
G-402; corrected for time zero
  GI50: 4.83 µM
G-402; curve inflection point
  EC50: 6.76 µM
SW1783; [1]
  IC50: 82.1 µM
SW1783; corrected for time zero
  GI50: 35.6 µM
SW1783; curve inflection point
  EC50: 82.1 µM
A204; [1]
  IC50: 9.19 µM
A204; corrected for time zero
  GI50: 7.57 µM
A204; curve inflection point
  EC50: 7.85 µM
TT; [1]
  IC50: > 100 µM
TT; corrected for time zero
  GI50: 14.3 µM
TT; curve inflection point
  EC50: > 100 µM
G-401; [1]
  IC50: 5.47 µM
G-401; corrected for time zero
  GI50: 4.83 µM
G-401; curve inflection point
  EC50: 5.34 µM
SCC-9; [1]
  IC50: 33.6 µM
SCC-9; corrected for time zero
  GI50: 26.3 µM
SCC-9; curve inflection point
  EC50: 33.6 µM
SW579; [1]
  IC50: 90.1 µM
SW579; corrected for time zero
  GI50: 67.9 µM
SW579; curve inflection point
  EC50: 90.1 µM
